Assay results taken from article PMC5547389, “Structure-activity relationships and molecular docking studies of chromene and chromene based azo chromophores: A novel series of potent antimicrobial and anticancer agents” (EXCLI Journal, 2017).
In brackets after ≈: the same amount, converted by molar mass.

Legend:
[1] = system: Human colon carcinoma (HCT-116); assay: Cytotoxic screening; assay type: cell-based; settings: HCT-116; for IC50: Homo sapiens, read-out: IC50 HCT-116
Description: (§1) Human colon carcinoma (HCT-116), human hepatocellular carcinoma (HEPG-2), adenocarcinomic human alveolar basal epithelial cell (A-549), and human breast adenocarcinoma (MCF-7) cell lines were obtained from the American Type Culture Collection (ATCC, Rockville, MD). The cells were grown on RPMI-1640 medium supplemented with 10 % inactivated fetal calf serum and 50 µg/ml gentamycin. The cells were maintained at 37 °C in a humidified atmosphere with 5 % CO2 and were subcultured two to three times a week. Potential cytotoxicity of the compounds was evaluated on tumor cells using the method of Gangadevi and Muthumary (2007[21]) (Klancnik et al., 2010[36]). The cells were grown as monolayers in growth RPMI-1640. The monolayers of 104 cells adhered at the bottom of the wells in a 96-well microtiter plate incubated for 24 h at 37 °C in a humidified incubator with 5 % CO2. The monolayers were then washed with sterile phosphate buffered saline (0.01 M pH 7.2) and simultaneously the cells were treated with 100 µL from different dilutions of tested sample in fresh maintenance medium and incubated at 37 °C. A control of untreated cells was made in the absence of tested sample. Positive controls containing doxorubicin were also tested as a reference drug for comparison. Six wells were used for each concentration of the test sample. Every 24 hours an observation under the inverted microscope was made. The number of the surviving cells was determined by staining the cells with crystal violet (Mosmann, 1983[42]; Gangadevi and Muthumary, 2007[21]) followed by cell lysing using 33 % glacial acetic acid and reading the absorbance at 590 nm using microplate reader (SunRise, TECAN, Inc, USA) after well mixing. The absorbance values from untreated cells were considered as 100 % proliferation. The number of viable cells was determined using microplate reader as previously mentioned before and the percentage of […] was calculated as [1-(ODt/ODc)] x 100 % where ODt is the mean optical density of wells treated with the tested sample and ODc is the mean optical density of untreated cells. The relation between surviving cells and drug concentration was plotted to get the survival curve of each tumor cell line after treatment with the specified compound. The 50 % inhibitory concentration (IC50), the concentration required to cause toxic effects in 50 % of intact cells, was estimated from graphic plots.
(§2) The in vitro cytotoxic activity was performed by MTT assay (Mosmann, 1983[42]; Alley et al., 1988[6]) against three human carcinoma cell lines: Human colon carcinoma (HCT-116), human breast adenocarcinoma (MCF-7), and human hepatocellular carcinoma (HEPG-2).

[2] = system: human breast adenocarcinoma (MCF-7); assay: Cytotoxic screening; assay type: cell-based; settings: for IC50: Homo sapiens, MCF7, read-out: IC50 MCF-7
Description: as §1, §2

[3] = system: human hepatocellular carcinoma (HEPG-2); assay: Cytotoxic screening; assay type: cell-based; settings: HepG2, read-out: IC50 HepG-2
Description: as §1, §2

[4] = system: Aspergillus fumigatus (RCMB 02568); assay: Well diffusion assay (inhibition zone); assay type: cell-based; settings: RCMB02568, 5 mg/mL in DMSO, fungi, read-out: Inhibition Zone (IZ) diameter, A.F
Description: (§3) The microorganism inoculums were uniformly spread using sterile cotton swabs on a sterile Petri dish malt extract agar (for fungi) and nutrient agar (for bacteria). One hundred cubic millimeters of each sample was added to each well (10 mm-diameter holes were cut in the agar gel, 20 mm apart from one another). The systems were incubated for 24-48 h at 37 °C (for bacteria) and at 28 °C (for fungi). After incubation, the microorganism growth was observed. Inhibition zones of the bacterial and fungal growth were measured in millimeters. Tests were performed in triplicate (Cappuccino and Sherman, 1999[12]; Vanden Berghe and Vlientinck, 1991[62]).
(§4) All the newly synthesized compounds described in this report were screened for both antibacterial and antifungal activity via the reported agar diffusion well method (Vanden Berghe and Vlietinck, 1991[62]). The inhibition zones and minimum inhibitory concentrations (MIC) were determined by the serial dilution method (Cappuccino and Sherman, 1999[12]). The antimicrobial activity of the synthesized compounds was tested against a broad panel of microorganisms including two Gram-positive bacteria: Streptococcus pneumoniae (RCMB 010010) and Bacillus subtilis (RCMB 010067), two Gram-negative bacteria: Pseudomonas aeruginosa (RCMB 010043) and Escherichia coli (RCMB 010052), and four fungi: Aspergillus fumigatus (RCMB 02568), Syncephalastrum racemosum (RCMB 05922), Geotricum candidum (RCMB 05097), and Candida albicans (RCMB 05036). Ampicillin, ciprofloxacin, gentamicin and amphotericin B were used as positive control drugs (Atta-ur-Rahman and Thomsen, 2001[7]; Smania et al., 1999[57]). […] While in the case of Gm-ve bacteria, they had weak activity. In addition, certain strains of fungi were sensitive to tested compounds with an IZ range from 12-25 except Candida albicans.

[5] = system: Escherichia coli (RCMB 010052); assay: Well diffusion assay (inhibition zone); assay type: cell-based; settings: RCMB010052, 5 mg/mL in DMSO, Gm-ve, read-out: Inhibition Zone (IZ) diameter, E.C
Description: as §3, §4

[6] = system: Bacillus subtilis (RCMB 010067); assay: Well diffusion assay (inhibition zone); assay type: cell-based; settings: RCMB010067, 5 mg/mL in DMSO, Gm+ve, read-out: Inhibition Zone (IZ) diameter, B.S
Description: as §3, §4

[7] = system: Syncephalastrum racemosum (RCMB 05922); assay: Well diffusion assay (inhibition zone); assay type: cell-based; settings: RCMB05922, 5 mg/mL in DMSO, fungi, read-out: Inhibition Zone (IZ) diameter, S.R
Description: as §3, §4

[8] = system: Streptococcus pneumoniae (RCMB 010010); assay: Well diffusion assay (inhibition zone); assay type: cell-based; settings: RCMB010010, 5 mg/mL in DMSO, Gm+ve, read-out: Inhibition Zone (IZ) diameter, S.P
Description: as §3, §4

[9] = system: Geotricum candidum (RCMB 05097); assay: Well diffusion assay (inhibition zone); assay type: cell-based; settings: 5 mg/mL in DMSO; fungi; read-out: Inhibition Zone (IZ) diameter, G.C
Description: as §3, §4

COc1cccc2c1C(=O)c1c(O)c3c(c(O)c1C2=O)C[C@@](O)(C(=O)CO)C[C@@H]3O[C@H]1C[C@H](N)[C@H](O)[C@H](C)O1 [Doxorubicin, reference compound]
IC50 [1]: 0.88 µg/mL (≈ 1.62 µM)
IC50 [2]: 1.02 µg/mL (≈ 1.88 µM)
IC50 [3]: 1.19 µg/mL (≈ 2.19 µM)

N#CC1=C(N)Oc2c(N)cc3ccccc3c2C1c1ccsc1 (stereo not shown) [4i, 3,5-Diamino-1-thiophen-3-yl-1H-benzo[f]chromene-2-carbonitrile]
IC50 [1]: 500 µg/mL (≈ 1570 µM)
IC50 [2]: 386 µg/mL (≈ 1210 µM)
IC50 [3]: 188 µg/mL (≈ 589 µM)
melting point: 230 °C

Cc1ccc(N=Nc2cc3c(cc2O)OC(N)=C(C#N)C3c2ccc(F)cc2)cc1 (stereo not shown) [13a, 2-Amino-4-(4-fluoro-phenyl)-7-hydroxy-6-p-tolylazo-4H-chromene-3-carbonitrile]
zone of inhibition at 5000 µg/mL [4]: 20.4 mm
zone of inhibition at 5000 µg/mL [5]: 14.4 mm
zone of inhibition at 5000 µg/mL [6]: 23.7 mm
zone of inhibition at 5000 µg/mL [7]: 17.3 mm
zone of inhibition at 5000 µg/mL [8]: 19.6 mm
zone of inhibition at 5000 µg/mL [9]: 21.4 mm
melting point: 203 °C

CC(C)(C)c1ccc(C2C(C#N)=C(N)Oc3c2ccc2c(N)cccc32)cc1 (stereo not shown) [7a, 2,7-Diamino-4-(4-tert-butyl-phenyl)-4H-benzo[h]chromene-3-carbonitrile]
IC50 [1]: 14.3 µg/mL (≈ 38.7 µM)
IC50 [2]: 17.5 µg/mL (≈ 47.4 µM)
IC50 [3]: 11.9 µg/mL (≈ 32.2 µM)
zone of inhibition at 5000 µg/mL [4]: 15.4 mm
zone of inhibition at 5000 µg/mL [5]: 13.8 mm
zone of inhibition at 5000 µg/mL [6]: 16.9 mm
zone of inhibition at 5000 µg/mL [7]: 14.1 mm
zone of inhibition at 5000 µg/mL [8]: 16.1 mm
zone of inhibition at 5000 µg/mL [9]: 15.8 mm
melting point: 210 °C

CC(C)(C)c1ccc(C2C(C#N)=C(N)Oc3cc(O)c(N=Nc4ccc(S(=O)(=O)O)cc4)cc32)cc1 (stereo not shown) [13g, 4-[2-Amino-4-(4-tert-butyl-phenyl)-3-cyano-7-hydroxy-4H-chromen-6-ylazo]-benzenesulfonic acid]
IC50 [1]: 100 µg/mL (≈ 198 µM)
IC50 [2]: 92.6 µg/mL (≈ 184 µM)
IC50 [3]: 81.3 µg/mL (≈ 161 µM)
zone of inhibition at 5000 µg/mL [4]: 14.3 mm
zone of inhibition at 5000 µg/mL [5]: 13.6 mm
zone of inhibition at 5000 µg/mL [6]: 16.1 mm
zone of inhibition at 5000 µg/mL [7]: 15.2 mm
zone of inhibition at 5000 µg/mL [8]: 15.2 mm
zone of inhibition at 5000 µg/mL [9]: 17.1 mm
melting point: 330 °C

N#CC1=C(N)Oc2c(N)cc3ccccc3c2C1c1cccc(C(F)(F)F)c1F (stereo not shown) [4g, 3,5-Diamino-1-(2-fluoro-3-trifluoromethyl-phenyl)-1H-benzo[f]chromene-2-carbonitrile]
IC50 [1]: 30 µg/mL (≈ 75.1 µM)
IC50 [2]: 53.5 µg/mL (≈ 134 µM)
IC50 [3]: 32.4 µg/mL (≈ 81.1 µM)
melting point: 202 °C

COc1cc(C2C(C#N)=C(N)Oc3c(N)cc4ccccc4c32)cc(OC)c1OC (stereo not shown) [4h, 3,5-Diamino-1-(3,4,5-trimethoxy-phenyl)-1H-benzo[f]chromene-2-carbonitrile]
IC50 [1]: 500 µg/mL (≈ 1240 µM)
IC50 [2]: 500 µg/mL (≈ 1240 µM)
IC50 [3]: 500 µg/mL (≈ 1240 µM)
melting point: 225 °C

N#CC1=C(N)Oc2c(ccc3c(N)cccc23)C1c1cccs1 (stereo not shown) [7e, 2,7-Diamino-4-thiophen-2-yl-4H-benzo[h]chromene-3-carbonitrile]
IC50 [1]: 39.9 µg/mL (≈ 125 µM)
IC50 [2]: 61.9 µg/mL (≈ 194 µM)
IC50 [3]: 33.2 µg/mL (≈ 104 µM)
zone of inhibition at 5000 µg/mL [4]: 16.4 mm
zone of inhibition at 5000 µg/mL [5]: 15.2 mm
zone of inhibition at 5000 µg/mL [6]: 18.2 mm
zone of inhibition at 5000 µg/mL [7]: 14.2 mm
zone of inhibition at 5000 µg/mL [8]: 16.3 mm
zone of inhibition at 5000 µg/mL [9]: 16.9 mm
melting point: 232 °C

N#CC1=C(N)Oc2c(N)cc3ccccc3c2C1c1ccc(Cl)cc1Cl (stereo not shown) [4e, 3,5-Diamino-1-(2,4-dichloro-phenyl)-1H-benzo[f]chromene-2-carbonitrile]
IC50 [1]: 2 µg/mL (≈ 5.23 µM)
IC50 [2]: 1.5 µg/mL (≈ 3.92 µM)
IC50 [3]: 1 µg/mL (≈ 2.62 µM)
melting point: 278 °C

N#CC1=C(N)Oc2cc(O)c(N=Nc3ccc([N+](=O)[O-])cc3)cc2C1c1ccc(F)cc1 (stereo not shown) [13c, 2-Amino-4-(4-fluoro-phenyl)-7-hydroxy-6-(4-nitro-phenylazo)-4H-chromene-3-carbonitrile]
IC50 [1]: 12.2 µg/mL (≈ 28.3 µM)
IC50 [2]: 10.8 µg/mL (≈ 25 µM)
IC50 [3]: 10.4 µg/mL (≈ 24.1 µM)
zone of inhibition at 5000 µg/mL [4]: 13.6 mm
zone of inhibition at 5000 µg/mL [5]: 9.4 mm
zone of inhibition at 5000 µg/mL [6]: 14.3 mm
zone of inhibition at 5000 µg/mL [7]: 10.4 mm
zone of inhibition at 5000 µg/mL [8]: 14.6 mm
melting point: 254 °C

N#CC1=C(N)Oc2cc(O)c(N=Nc3ccc(S(=O)(=O)O)cc3)cc2C1c1ccccc1F (stereo not shown) [13f, 4-[2-Amino-3-cyano-4-(2-fluoro-phenyl)-7-hydroxy-4H-chromen-6-ylazo]-benzenesulfonic acid]
IC50 [1]: 100 µg/mL (≈ 214 µM)
IC50 [2]: 79.8 µg/mL (≈ 171 µM)
IC50 [3]: 68.4 µg/mL (≈ 147 µM)
zone of inhibition at 5000 µg/mL [4]: 10.3 mm
zone of inhibition at 5000 µg/mL [5]: 12.1 mm
zone of inhibition at 5000 µg/mL [6]: 13.4 mm
zone of inhibition at 5000 µg/mL [7]: 11.6 mm
zone of inhibition at 5000 µg/mL [8]: 10.6 mm
zone of inhibition at 5000 µg/mL [9]: 13.4 mm
melting point: 290 °C

N#CC1=C(N)Oc2c(N)cc3ccccc3c2C1c1ccc(F)cc1F (stereo not shown) [4f, 3,5-Diamino-1-(2,4-difluoro-phenyl)-1H-benzo[f]chromene-2-carbonitrile]
IC50 [1]: 9.25 µg/mL (≈ 26.5 µM)
IC50 [2]: 6.38 µg/mL (≈ 18.3 µM)
IC50 [3]: 5.22 µg/mL (≈ 14.9 µM)
melting point: 282 °C

CC[C@]1(O)C[C@@H]2CN(CCc3c([nH]c4ccccc34)[C@@](C(=O)OC)(c3cc4c(cc3OC)N(C)[C@H]3[C@@](O)(C(=O)OC)[C@H](OC(C)=O)[C@]5(CC)C=CCN6CC[C@]43[C@@H]65)C2)C1 [Vinblastine, reference compound]
IC50 [1]: 2.6 µg/mL (≈ 3.21 µM)
IC50 [2]: 6.1 µg/mL (≈ 7.52 µM)
IC50 [3]: 4.6 µg/mL (≈ 5.67 µM)

CCCCc1ccc(C2C(C#N)=C(N)Oc3cc(O)c(N=Nc4ccc(S(=O)(=O)O)cc4)cc32)cc1 (stereo not shown) [13h, 4-[2-Amino-4-(4-butyl-phenyl)-3-cyano-7-hydroxy-4H-chromen-6-ylazo]-benzenesulfonic acid]
IC50 [1]: 88.6 µg/mL (≈ 176 µM)
IC50 [2]: 44.6 µg/mL (≈ 88.4 µM)
IC50 [3]: 40.4 µg/mL (≈ 80.1 µM)
zone of inhibition at 5000 µg/mL [4]: 12.1 mm
zone of inhibition at 5000 µg/mL [5]: 13.9 mm
zone of inhibition at 5000 µg/mL [6]: 16.3 mm
zone of inhibition at 5000 µg/mL [7]: 13.6 mm
zone of inhibition at 5000 µg/mL [8]: 15.3 mm
zone of inhibition at 5000 µg/mL [9]: 15.8 mm
melting point: 275 °C

O=c1[nH]cc(F)c(=O)[nH]1 [5-Flurouracil, reference compound]
IC50 HCT-116 [1]: 4.3 µg/mL (≈ 33.1 µM)
IC50 MCF-7 ([2]; MCF-7): 3.9 µg/mL (≈ 30 µM)
